The subject of series [1] is Jurkat cells. Put plainly: G2 checkpoint abrogation, bleomycin treated Jurkat cells, flow cytometry. Format: cell-based, human. The conditions noted are these: for G2 checkpoint abrogating activity: bleomycin treated Jurkat cells. How it is done:
Cell-Cycle Analysis The cell cycle status of the cells treated with bleomycin or adriamcin were analyzed by flow cytometry as described by Kawabe (1997) Nature 385:454-458. In brief, two million cells were re-suspended and incubated in 200 μl Krishan's solution (0.1% Sodium citrate, 50 μg/ml PI, 20 μg/ml RNase A and 0.5% NP-40) for 1 hr at 4° C. and analyzed by a flow cytometry, FACScan™ (Beckton Dickinson, Mountain View, Calif.) with the program CELLQuest™ (Beckton Dickinson).
Flow cytometry analysis of G2 checkpoint abrogation was performed using human leukemia derived Jurkat cell line. In brief, cultured cells were treated with various doses of peptide/peptidomimetic and 40 μg/ml bleomycine for 24 hr. The DNA of the cells was stained with propidium iodide and analyzed by flow cytometry.
(§1) The “Appearance of side effect when used alone” indicates the peptide/peptidomimetic dose that produced Jurkat cell cycle disturbance, i.e., the appearance of significant amounts of SubG1 cells (dead cells) or cells in which the DNA content of each varies more than usual. […] The “G2 abrogating dose” indicates the peptide/peptidomimetic dose with 40 μg/ml bleomycine that produced detectable G2 checkpoint abrogation activity following treatment for 24 hours. The “Appearance of side effect when used with colchicine” indicates the peptide/peptidomimetic dose with 5 μg/ml colchicine that produced Jurkat cell cycle disturbance following treatment for 24 hours.
(§2) A comparison between G2 checkpoint abrogating activity and non specific toxicity (M checkpoint abrogation) by CB501 was performed. In brief, Jurkat cells were treated with 40 μg/ml bleomycin or 0.5 μg/ml colchicine for G2 checkpoint abrogating activity and non specific toxicity, respectively. The DNA amount in each of the treated cells was analyzed by flow cytometry, as previously described.
(In flow cytometry, cells or beads pass a laser one at a time.)

For series [2], the system named is M1 and M2 macrophages. Put plainly: Phagocytic activity of M1 and M2 macrophages, fluorescent beads. The format is cell-based, human. How it is done:
Referring to FIG. 19, macrophages were obtained by stimulating human peripheral blood mononuclear cells by 0.32 uM of PMA and removing all suspension cells 48 hours of PMA stimulation. The cells were further incubated with 50 ng/ml IFN-gamma, 10 ng/ml LPS to obtain M1 phenotype, and 20 ng/ml IL-4 to obtain M2 macrophages. Both treatment was with or without CBP501. The phagocytic activity was monitored by using fluorescent labelled beads and flow cytometry.

Series [3] has as its system non-squamous NSCLC. Put plainly: Phase II randomized study, cisplatin and pemetrexed with or without CBP501. The format is in vivo, human. The conditions noted are these: for Hazard Ratio OS: Arm A vs Arm B. How it is done:
Clinical Study Design: Open-label, multicenter, phase II randomized, two-arm, comparative study. The protocol evaluated full-dose cisplatin and pemetrexed with or without CBP501. […] Randomization was stratified according to baseline stage of disease (IIIb vs IV), presence of brain metastasis and whether or not patients were eligible for bevacizumab therapy.
A cycle was considered to be 3 weeks (21 days).
3. Cisplatin 75 mg/m^2 was administered as a 1-hour i.v. infusion immediately after the pemetrexed infusion.
Cox proportional hazards model was employed to estimate the hazard ratio (HR) for PFS between the 2 treatment arms. The model included the treatment arm as a factor as well as the randomization stratification factors. The following covariates were explored: age, gender, race (Caucasian/non-Caucasian), prior surgery/procedure (yes/no), prior radiotherapy (yes/no), x-ray interpretation (normal/abnormal), ECG interpretation (normal/abnormal), bone scan (normal/abnormal), and time from diagnosis. Any continuous variables such as age and time from diagnosis to study treatment could have been converted into categorical variables by specifying 2 or several classes of values if a better model fit would result. The exploratory variables were entered using a stepwise regression algorithm using the following criteria: a variable must be significant at the 0.25 level to be entered into the model and significant at 0.15 level to remain in the model. For the final model, the point estimate of the hazard ratios were provided along with 95% CIs.
Subgroup analyses were conducted for patients that had […] at screening. Additional subgroup analysis was performed with a software GraphPad Prism 5 with raw data on each patients analyzed.

The subject of series [4] is CBP501-sensitive tumor cells. The conditions noted are these: cited from earlier work.
Series [5] concerns Jurkat cells. Nature of the series: M phase checkpoint abrogation / non specific toxicity, colchicine treated Jurkat cells. The format is cell-based. As to the method:
Flow cytometry analysis of M phase checkpoint abrogation by the compounds was performed using human T cell leukemia Jurkat cell line treated with colchicine (5 μg/ml or 0.5 μg/ml) and various doses of peptide/peptidomimetics for 24 hr (FIG. 12). The DNA of the cells was stained and analyzed by flow cytometry as described above.
as §1, §2

Series [6] in a line: Mouse serum treatment analysis, residual CBP501 quantity by HPLC. As to conditions: mouse serum (table title), 37 degree. Format: in vitro ADME.
Series [7] deals with HUVEC cells. Put plainly: G2 checkpoint abrogation by CBP501 combined with cis-platin in various cell lines. The format is cell-based, human. The conditions noted are these: cis-platin 3 μg/ml, 3 hr, then 45 hr. As to the method:
The medium was aspirated, fresh medium without these compounds was added and the cells were incubated for an additional 45 hr. The cells including floating cells were harvested using trypsin-EDTA solution, incubated with Krishan's solution and analyzed for DNA content by flow cytometry as previously described.

For series [8], the system named is HUVEC. Nature of the series: Growth of normal human umbilical endothelial cells. Format: cell-based. As to the method:
Similar studies were performed using normal human umbilical endothelial cells (HUVEC).

For series [9], the system named is MIAPaCa2. Put plainly: Sub-G1 (dead cell) analysis of MIAPaCa2 treated with bleomycin or adriamycin. Format: cell-based, human. As to conditions: bleomycine 10 μg/ml or adriamycin 1 μg/ml, 3 hours, then 21 hours. How it is done:
The G2 checkpoint abrogating activity of various compounds at different doses on human pancreatic cancer derived cell line MIAPaCa2 treated with bleomycine (Bleo) or adriamycin (ADR) was studied. Briefly, cells were incubated with the compounds and bleomycine (10 μg/ml) or adriamycin (1 μg/ml) for 3 hours. The medium was changed and incubated for an additional 21 hours. Harvested cells were stained for DNA by propium iodide and analyzed with flow cytometry as previously described. The % of the sub-G1 cell population is indicated as dead cells in FIG. 3.

Series [10] concerns MIAPaCa2 human pancreatic carcinoma cells. Put plainly: Colony formation analysis of MIAPaCa2 cells. The conditions noted are these: CBP501 10 μM, cisplatin or oxaliplatin 1, 3 or 9 μg/ml, 3 hours, 10 days.
Description: Briefly, cells were plated at 300 cells/well in 6 well plates, incubated overnight, and treated with the compounds for three hours. The medium was changed and cultured for an additional 10 days. Cells were subsequently fixed with 70% methanol, stained with 0.1% crystal violet and visualized.
The subject of series [11] is MIAPaCa2 human pancreatic carcinoma. Put plainly: MIAPaCa2 subcutaneous tumor in scid mice. Format: in vivo, mouse. As to the method: To study in vivo efficacy of the compounds, MIAPaCa2 human pancreatic carcinoma cells were implanted subcutaneously in scid mice. The treatment was initiated when the size of the primary tumor became 0.1 cm3 (Day0) or larger, e.g., 7 or 8 mm in diameter. CDDP (3 mg/kg) and CBP 501 (10 or 40 mg/kg) were intra-peritoneally administered alone or in combination. Tumor sizes were measured using calipers three times a week, and volumes were calculated using the formula: weight(mg)=[width (mm)2×length (mm)]/2. Mean tumor sizes for each treatment group are plotted (n=4) against the days after the start of treatment (FIG. 10).

For series [12] the following is noted: cited from earlier work.

Where a SMILES comes first, the peptide text is derived from it. Where no end group is shown, it is not given here. [ ]: non-standard residue; d: D form. dPhe(F5) = N[C@H](Cc1c(F)c(F)c(F)c(F)c1F)C(=O)O; dBpa = N[C@H](Cc1ccc(C(=O)c2ccccc2)cc1)C(=O)O; dCha = N[C@H](CC1CCCCC1)C(=O)O A value given as a limit tells only on which side of the number the result lay.

For the molecule `N=C(N)NCCC[C@H](NC(=O)CNC(=O)[C@@H](N)Cc1ccc(O)cc1)C(=O)N[C@@H](CCCCN)C(=O)N[C@@H](CCCCN)C(=O)N[C@@H](CCCNC(=N)N)C(=O)N[C@@H](CCCNC(=N)N)C(=O)N[C@@H](CCC(N)=O)C(=O)N[C@@H](CCCNC(=N)N)C(=O)N[C@@H](CCCNC(=N)N)C(=O)N[C@@H](CCCNC(=N)N)C(=O)N[C@@H](CC1CCCCC1)C(=O)N[C@@H](Cc1c(F)c(F)c(F)c(F)c1F)C(=O)N[C@@H](CCCNC(=N)N)C(=O)N[C@@H](CO)C(=O)N1CCC[C@H]1C(=O)N[C@@H](CO)C(=O)N[C@@H](Cc1ccc(O)cc1)C(=O)N[C@@H](Cc1ccc(O)cc1)C(=O)O` [CBP413, (l-Tyr)(l-Gly)(l-Arg)(l-Lys)(l-Lys)(l-Arg)(l-Arg)(l-Gln)(l-Arg)(l-Arg)(l-Arg)(l-Cha)(l-Phe-2,3,4,5,6-F)(l-Arg)(l-Ser)(l-Pro)(l-Ser)(l-Tyr)(l-Tyr)], the G2 abrogating dose result in [1] (with 40 μg/ml bleomycine, 24 hours) is recorded as “≧1.56 μM”.

Consider `N=C(N)NCCC[C@@H](NC(=O)[C@@H](CCCNC(=N)N)NC(=O)[C@@H](CCC(N)=O)NC(=O)[C@@H](CCCNC(=N)N)NC(=O)[C@@H](CCCNC(=N)N)NC(=O)[C@@H](CCCNC(=N)N)NC(=O)[C@@H](CC1CCCCC1)NC(=O)[C@@H](Cc1c(F)c(F)c(F)c(F)c1F)NC(=O)[C@@H](CO)NC(=O)[C@@H](Cc1c[nH]c2ccccc12)NC(=O)[C@@H](CO)NC(=O)[C@H](N)Cc1ccc(C(=O)c2ccccc2)cc1)C(=O)O` [CBP501, (d-Bpa)(d-Ser)(d-Trp)(d-Ser)(d-Phe-2,3,4,5,6-F)(d-Cha)(d-Arg)(d-Arg)(d-Arg)(d-Gln)(d-Arg)(d-Arg)] (H-[dBpa][dS][dW][dS][dPhe(F5)][dCha][dR][dR][dR][dQ][dR][dR]-OH; N-terminus and C-terminus assumed), for which the “G2 checkpoint abrogating activity” value in series [1] is given as “abrogated in a dose dependent manner”. Besides, the “Phagocytosis of macrophages in vitro” value in series [2] was “inhibited phagocytosis of both M1 and M2 macrophages”. Besides, the “Hazard Ratio OS” value in [3] (ALL treated, exploring other covariates) stood at 0.77; in [3] (ALL treated, without exploring other covariates) it was 0.96; in series [3] (WBC <10000/μL at screening, exploring other covariates), 0.69; in series [3] (WBC <10000/μL at screening, without exploring other covariates), 0.80. Besides, the “Survival benefit from addition to pemetrexed plus cisplatin” value in [3] (all treated population) is given as “no statistically significant survival benefit”; in series [3] (sub-group with normal or low WBC at screening) it was “provided a benefit”. In addition, the “Platinum concentration and platinum-DNA adduct formation” value in [4] was “increase platinum concentration and platinum-DNA adduct formation”. In series [5], the “Effect on M phase cell cycle arrest induced by colchicine” value was “does not affect M phase cell cycle arrest and/or non specific toxicity induced by colchicine”. In addition, the “Dose up to which non specific toxicity (M checkpoint abrogation) was absent” value in series [5] (0.5 μg/ml colchicine) was greater than 50 µM. Moreover, the “Residual peptide after 1 hr serum treatment” value in series [6] is greater than 90%. In addition, the “Dose up to which HUVEC cells were not sensitized to cisplatin” value in series [7] was greater than 50 µM. For the same molecule, the “Effect on growth of normal cells” value in series [8] is on record as “does not affect the growth of HUVEC cells”. Also, the “Sensitization to DNA damaging agents (% sub-G1 cells)” value in series [9] was “sensitized MIAPaCa2 cells to both bleomycin and adriamycin in a dose dependent manner”. For the same molecule, the “Effect on cyto-toxic activity of platinum drugs, colony formation” value in series [10] was “enhanced the cyto-toxic activity of both cisplatin and oxaliplatin”. The “Tumor growth, treatment alone” value in [11] (CBP501 10 or 40 mg/kg intra-peritoneally) is given as “suppresses the growth of human pancreatic cancer cell in vivo”. The “Tumor growth, combination with cisplatin” value in series [11] (CDDP 3 mg/kg and CBP501 10 or 40 mg/kg intra-peritoneally) was “increased the anti-tumor activity of cisplatin”. Further, the “Dose limiting allergic reactions (grade 3)” value in [12] (CBP501 36.4 mg/m^2 and cisplatin 75 mg/m^2) is on record as “two out of six patients experienced allergic reactions”. For the same molecule, the MTD in patients in series [12] (in combination with cisplatin 75 mg/m^2, once every 21 days) was 24.3 mg/m^2.

As to “(d-Arg)(d-Arg)(d-Arg)(d-Arg)(d-Bpa)(d-Arg)(d-Trp)(d-Arg)(d-Phe-2,3,4,5,6-F)(d-Cha) ([dR][dR][dR][dR][dBpa][dR][dW][dR][dPhe(F5)][dCha]) [CBP702]”, the “G2 checkpoint abrogating activity” value in series [1] was “retain G2 checkpoint abrogating activity comparable to other peptides having significant G2 checkpoint abrogating activity”.

For “(d-Arg)(d-Arg)(d-Arg)(d-Bpa)(d-Arg)(d-Arg)(d-Arg)(d-Phe-2,3,4,5,6-F)(d-Cha) ([dR][dR][dR][dBpa][dR][dR][dR][dPhe(F5)][dCha]) [CBP703]”, in series [1], the “G2 checkpoint abrogating activity” value is reported as “retain G2 checkpoint abrogating activity comparable to other peptides having significant G2 checkpoint abrogating activity”.

In the case of “(d-Arg)(d-Arg)(d-Arg)(d-Bpa)(d-Arg)(d-Trp)(d-Arg)(d-Phe-2,3,4,5,6-F)(d-Cha) ([dR][dR][dR][dBpa][dR][dW][dR][dPhe(F5)][dCha]) [CBP701]”, the “G2 checkpoint abrogating activity” value in series [1] is “retain G2 checkpoint abrogating activity comparable to other peptides having significant G2 checkpoint abrogating activity”.

“(d-Arg)(d-Arg)(d-Bpa)(d-Arg)(d-Arg)(d-Arg)(d-Phe-2,3,4,5,6-F)(d-Cha) ([dR][dR][dBpa][dR][dR][dR][dPhe(F5)][dCha]) [CBP700]”: in [1], the “G2 checkpoint abrogating activity” value is on record as “retain G2 checkpoint abrogating activity comparable to other peptides having significant G2 checkpoint abrogating activity”.

Source of the values: US9221872B2, “Peptides and peptidomimetics in combination uses and treatments for cancer patient subpopulations” (priority 2013, dated 2015).
